Measurements: article PMC5736936, “Xylopine Induces Oxidative Stress and Causes G2/M Phase Arrest, Triggering Caspase-Mediated Apoptosis by p53-Independent Pathway in HCT116 Cells” (Oxidative Medicine and Cellular Longevity, 2017)
pIC50: −log10 of the molar value. Where two headings read alike, the source gives them in different places.

Legend:
HCT116 cells [1] = type: cell-based, human
Description: Cells were harvested in a permeabilization solution containing 0.1% Triton X-100 (Sigma Chemical Co., St Louis, MO, USA), 2 μg/mL propidium iodide (Sigma Chemical Co.), 0.1% sodium citrate, and 100 μg/mL RNAse (Sigma Chemical Co.) and incubated in the dark for 15 min at room temperature. Finally, cell fluorescence was measured by flow cytometry on a BD LSRFortessa cytometer using the BD FACSDiva software (BD Biosciences) and FlowJo software 10 (FlowJo, LCC, Ashland, OR, USA).

HCT116 cells [2] = assay: Morphological analysis (May-Grünwald-Giemsa); type: cell-based, human; details: 24 and 48 h, DOX 1 μM, OXA 2.5 μM
Description: To evaluate alterations in morphology, cells were cultured under coverslip and stained with May-Grünwald-Giemsa. Morphological changes were examined by light microscopy using Image-Pro software.

calf thymus DNA (ctDNA) = assay: DNA intercalation assay (ethidium bromide displacement); type: binding; details: 10 or 20 μM xylopine, 15 μg/mL ctDNA, 1.5 μM ethidium bromide
Description: DNA intercalation was assessed by examining the ability of xylopine to displace ethidium bromide from calf thymus DNA (ctDNA, Sigma-Aldrich Co.). The assay was conducted in 96-well plates and contained 15 μg/mL ctDNA, 1.5 μM ethidium bromide, and 10 or 20 μM xylopine in 100 μL saline solution. […] Fluorescence was measured using excitation and emission wavelengths of 320 and 600 nm, respectively.

[3] = tested on: cancer multicellular spheroids formed from HCT116 cells; assay: 3D multicellular spheroids culture, alamarBlue assay, 72 h; type: cell-based, human
Description: HCT116 cells were cultivated in three-dimensional (3D) multicellular spheroids. Briefly, 100 μL of a solution of cells (0.5 × 10^6 cells/mL) was inserted in 96-well plates with a cell-repellent surface (Greiner Bio-One, Kremsmünster, Austria) and cultured in complete medium plus 3% Matrigel (BD Biosciences, San Jose, CA, USA). Spheroids with stable structures had formed after three days. Then, the spheroids were exposed to a range of drug concentrations for 72 h, after which the cell viability was quantified by alamarBlue assay as described above.

[4] = tested on: human hepatocellular carcinoma HepG2 cells; set-up: method as in PMID 27399666; details: cited from earlier work
[5] = tested on: BAD KO SV40 MEF (BAD gene knockout immortalized mouse embryonic fibroblast); assay: Cytotoxic activity in BAD gene knockout fibroblasts; type: cell-based; details: BAD KO SV40 MEF cell line
From the text: MCF7 (human breast carcinoma), HCT116 (human colon carcinoma), HepG2 (human hepatocellular carcinoma), SCC-9 (human oral squamous cell carcinoma), HSC-3 (human oral squamous cell carcinoma), HL-60 (human promyelocytic leukemia), K-562 (human chronic myelogenous leukemia), B16-F10 (murine melanoma), MRC-5 (human lung fibroblast), WT SV40 MEF (wild-type immortalized mouse embryonic fibroblast), and BAD KO SV40 MEF (BAD gene knockout immortalized mouse embryonic fibroblast) cell lines were obtained from the American Type Culture Collection (ATCC, Manassas, VA, USA). Cells were cultured in complete medium with appropriate supplements as recommended by ATCC. All cell lines were tested for mycoplasma using the Mycoplasma Stain Kit (Sigma-Aldrich) to validate the use of cells free from contamination. Primary cell culture of peripheral blood mononuclear cells (PBMC) was obtained by standard Ficoll density protocol. The Research Ethics Committee of the Oswaldo Cruz Foundation (Salvador, BA, Brazil) approved the experimental protocol (number 031019/2013). Cell viability was examined using trypan blue exclusion assay for all experiments.
Cell viability was quantified using the alamarBlue assay according to Ahmed et al.. Cells were inserted in 96-well plates for all experiments (7 × 10^4 cells/mL for adherent cells or 3 × 10^5 cells/mL for suspended cells in 100 μL of medium). After 24 h, xylopine was dissolved in dimethyl sulfoxide (DMSO) and added to each well and incubated for 72 h. […] Four (for cell lines) or 24 h (for PBMCs) before the end of incubation, 20 μL of a stock solution (0.312 mg/mL) of the alamarBlue (resazurin, Sigma-Aldrich Co., Saint Louis, MO, USA) was added to each well. Absorbance at 570 nm and 600 nm was measured using the SpectraMax 190 Microplate Reader (Molecular Devices, Sunnyvale, CA, USA), and the drug effect was quantified as the percentage of control absorbance.

HCT116 cells [6] = assay: Annexin V-FITC/PI staining assay (flow cytometry), with protection assays; type: cell-based, human
Description: For apoptosis detection, we used the FITC Annexin V Apoptosis Detection Kit I (BD Biosciences), and the analysis was performed according to the manufacturer's instructions. The cell fluorescence was determined by flow cytometry as described above. The protection assays using a caspase-3 inhibitor (Z-DEVD-FMK, BD Biosciences), a p53 inhibitor (cyclic pifithrin-α, Cayman Chemical, Ann Arbor, MI, USA), and an antioxidant N-acetyl-L-cysteine (NAC, Sigma-Aldrich Co.) were performed. In brief, the cells were pretreated for 2 h with 50 μM Z-DEVD-FMK and 10 μM cyclic pifithrin-α and for 1 h with 5 mM NAC, followed by incubation with 14 μM xylopine for 48 h. The cells were then trypsinized and the FITC Annexin V Apoptosis Detection assay was conducted as described above.

[7] = HCT116, XYL 3.5 μM, 24 h incubation
[8] = HCT116, XYL 3.5 μM, 48 h incubation
[9] = HCT116, XYL 7 μM, 24 h incubation
[10] = HCT116, XYL 7 μM, 48 h incubation
[11] = HCT116, XYL 14 μM, 24 h incubation
[12] = HCT116, XYL 14 μM, 48 h incubation

## COc1ccc2c(c1)C[C@@H]1NCCc3cc4c(c-2c31)OCO4 [XYL, xylopine]
HCT116 cells [1]; [7]
  DNA content (%) G0/G1: 17.0 ± 7.0^∗ %
  DNA content (%) G2/M: 57.2 ± 3.5^∗ %
  DNA content (%) S: 24.7 ± 4.8%
  DNA content (%) Sub-G0/G1: 6.2 ± 1.9%
HCT116 cells [1]; HCT116, XYL 3.5 μM, 24 h incubation, listed as xylopine
  DNA content (%) G2/M: 57.2%
HCT116 cells [1]; [8]
  DNA content (%) G0/G1: 17.0 ± 6.3^∗ %
  DNA content (%) G2/M: 52.0 ± 6.8^∗ %
  DNA content (%) S: 11.1 ± 2.2%
  DNA content (%) Sub-G0/G1: 15.2 ± 1.9%
HCT116 cells [1]; HCT116, XYL 3.5 μM, 48 h incubation, listed as xylopine
  DNA content (%) G2/M: 52.0%
HCT116 cells [1]; [9]
  DNA content (%) G0/G1: 14.9 ± 4.2^∗ %
  DNA content (%) G2/M: 58.5 ± 2.9^∗ %
  DNA content (%) S: 23.3 ± 3.7%
  DNA content (%) Sub-G0/G1: 5.1 ± 1.6%
HCT116 cells [1]; HCT116, XYL 7 μM, 24 h incubation, listed as xylopine
  DNA content (%) G2/M: 58.5%
HCT116 cells [1]; [10]
  DNA content (%) G0/G1: 10.3 ± 1.3^∗ %
  DNA content (%) G2/M: 52.7 ± 3.6^∗ %
  DNA content (%) S: 6.8 ± 2.0%
  DNA content (%) Sub-G0/G1: 25.9 ± 2.5^∗ %
HCT116 cells [1]; HCT116, XYL 7 μM, 48 h incubation, listed as xylopine
  DNA content (%) G2/M: 52.7%
HCT116 cells [1]; [11]
  DNA content (%) G0/G1: 30.5 ± 6.0%
  DNA content (%) G2/M: 54.0 ± 6.1^∗ %
  DNA content (%) S: 11.1 ± 1.6%
  DNA content (%) Sub-G0/G1: 11.3 ± 1.4%
HCT116 cells [1]; HCT116, XYL 14 μM, 24 h incubation, listed as xylopine
  DNA content (%) G2/M: 54.0%
HCT116 cells [1]; [12]
  DNA content (%) G0/G1: 14.6 ± 2.6^∗ %
  DNA content (%) G2/M: 40.8 ± 5.7^∗ %
  DNA content (%) S: 9.3 ± 1.7%
  DNA content (%) Sub-G0/G1: 33.4 ± 6.2^∗ %
HCT116 cells [1]; HCT116, XYL 14 μM, 48 h incubation, listed as xylopine
  DNA content (%) G2/M: 40.8%
HCT116 cells [2]
  cell morphology: reduction in the cell volume, chromatin condensation, and fragmentation of the nuclei
Calf thymus DNA (ctDNA)
  displacement of ethidium bromide from ctDNA (fluorescence intensity): not able to decrease the ethidium bromide fluorescence
[3]; 3D spheroids of HCT116, light microscopy
  morphology of spheroids: morphological alterations that indicate drug permeability and cytotoxicity in the 3D culture
[3]; Homo sapiens, HCT-116, 3D spheroids of HCT116, alamarBlue, 72 h
  IC50: 24.6 µM
[4]
  cell cycle arrest and apoptosis: causes G2/M cell cycle arrest and apoptosis
[5]
  pIC50: 5.19
HCT116 cells [6]; HCT116, 50 μM Z-DEVD-FMK 2 h, then 14 μM xylopine 48 h
  xylopine-induced apoptosis on cotreatment with caspase-3 inhibitor (Z-DEVD-FMK): prevented
HCT116 cells [6]; HCT116, 5 mM NAC 1 h, then 14 μM xylopine 48 h
  xylopine-induced increase of cell death by apoptosis on cotreatment with NAC: prevented
HCT116 cells [6]; HCT116, annexin V/PI, 24 and 48 h, p < 0.05
  early and late apoptosis: significantly increased
HCT116 cells [6]; HCT116, annexin V/PI, 48 h, p < 0.05
  necrotic cells: significant increase
